For 9 compounds, EC50 and IC50 results are on record in ChEMBL document CHEMBL1126672, “1,3-dioxolanylpurine nucleosides (2R,4R) and (2R,4S) with selective anti-HIV-1 activity in human lymphocytes” (J Med Chem, 1993).

A short description of test [1]: Antiviral activity was evaluated in mitogen-stimulated human peripheral blood mononuclear (PBM) cells infected with HIV-1 strain LAV. The test is classed as functional.
Test [2] is described as follows: Cytotoxicity against uninfected PHA-stimulated human peripheral blood mononuclear (PBM) cells was determined. The test is classed as cell-based.
For test [3], the system named is Vero. Kind of test: Cytotoxicity against uninfected PHA-stimulated vero cells was determined. The test is classed as cell-based. The conditions noted are these: Chlorocebus sabaeus.
The test system of test [4] is CCRF-CEM. In words: Cytotoxicity against uninfected PHA-stimulated CEM cells was determined. Format: cell-based. Particulars: Homo sapiens.
A short description of test [5]: Antiviral activity was evaluated in mitogen-stimulated human peripheral blood mononuclear (PBM) cells infected with HIV-1 strain LAV. The test is classed as functional.
Test [6] in a line: Cytotoxicity against uninfected PHA-stimulated human peripheral blood mononuclear (PBM) cells was determined. Format: cell-based.
In test [7] the test system is CCRF-CEM. In words: Cytotoxicity against uninfected PHA-stimulated CEM cells was determined. Format: cell-based. The conditions noted are these: Homo sapiens.
Test [8] relates to Vero. In words: Cytotoxicity against uninfected PHA-stimulated vero cells was determined. Format: cell-based. Particulars: Chlorocebus sabaeus.

A word on the EC50: it is the concentration giving half of the maximal effect. The low end stands for greater potency, the high end for weaker potency. For orientation: IC50 means the point on the concentration scale where inhibition reaches its midpoint.

In turn, `CSc1ncnc2c1ncn2[C@H]1CO[C@@H](CO)O1` had an EC50 in test [1] of 25.1 µM. Moreover, the 50% inhibitory concentration (IC50) in test [2], in test [3] and in test [4] was greater than 100 µM throughout.
`Nc1nc2c(ncn2[C@H]2CO[C@@H](CO)O2)c(=O)[nH]1` had a half-maximal effective concentration (EC50) in test [1] of 0.03 µM. The IC50 in test [2], in test [3] and in test [4] was greater than 100 µM each time.
The compound `Nc1nc(Cl)nc2c1ncn2[C@H]1CO[C@@H](CO)O1` showed an EC50 in test [5] of 1.7 µM. Further, the IC50 in test [6], in test [7] and in test [8] was greater than 100 µM throughout.
As for `OC[C@@H]1OC[C@@H](n2cnc3c(Cl)ncnc32)O1`, in test [5], the EC50 turned out to be 11.1 µM. Also, the IC50 was greater than 100 µM in test [6], 57.6 µM in test [7] and greater than 100 µM in test [8].
Regarding `Nc1nc(Cl)nc2c1ncn2[C@@H]1CO[C@@H](CO)O1`, it took 39.9 µM to reach a half-maximal effect in test [5] (EC50). Moreover, the IC50 in test [6], in test [7] and in test [8] was greater than 100 µM in each case.
Consider `OC[C@@H]1OC[C@H](n2cnc3c(Cl)ncnc32)O1`, for which, in test [5], a half-maximal effect (EC50) was put at 22.8 µM. The IC50 in test [6], in test [7] and in test [8] was greater than 100 µM each time.
For the compound `OC[C@@H]1OC[C@H](n2cnc3c(S)ncnc32)O1`, in test [5], the concentration for a half-maximal effect (EC50) turned out to be 26.5 µM. Further, the concentration for half-maximal inhibition (IC50) in test [6], in test [7] and in test [8] was greater than 100 µM throughout.
The compound `Cc1cn([C@H]2C[C@H](N=[N+]=[N-])[C@@H](CO)O2)c(=O)[nH]c1=O` [ZIDOVUDINE] came in with an EC50 in test [5] of 0.004 µM. The IC50 is greater than 100 µM in test [6] and 30.9 µM in test [7].
As to `CNc1nc(Cl)nc2c1ncn2[C@H]1CO[C@@H](CO)O1`, it took 40 µM to reach a half-maximal effect in test [5] (EC50). Besides, the IC50 in test [6], in test [7] and in test [8] was greater than 100 µM each time.
